Experiments:
[1] = tested on: hospitalized patients with Covid-19; conditions: WHO Solidarity Trial; cited from earlier work
[2] = tested on: SARS CoV-2; conditions: whole blood or plasma samples collected with the anticoagulant
[3] = tested on: adults with mild COVID-19; conditions: cited from earlier work

Compound: CCN(CCO)CCCC(C)Nc1ccnc2cc(Cl)ccc12 (centres unmarked) [hydroxychloroquine]
- effect on hospitalized patients with Covid-19 [1]: little or no effect

Compound: Cc1cccc(C)c1OCC(=O)N[C@@H](Cc1ccccc1)[C@@H](O)C[C@H](Cc1ccccc1)NC(=O)[C@H](C(C)C)N1CCCNC1=O [lopinavir]
- effect on hospitalized patients with Covid-19 [1]: little or no effect

Compound: heparin sodium [sodium heparin]
- inhibition of certain SARS CoV-2 assays [2]: inhibited

Compound: ivermectin
- effect on the duration of symptoms [3]: not have a significant effect

Compound: lithium heparin
- inhibition of certain SARS CoV-2 assays [2]: inhibited
